Data published in patent US20130078194A1, “COMPOSITIONS FOR DENTAL TREATMENT COMPRISING LIPOTEICHOIC ACIDS OR PARTS THEREOF LIKE MONO- OR POLYGLYCERPHOSPHATES” (LUNAMED AG, priority 2010, published 2013).
Values joined by “and” are separate entries in the source; they are usually repeats but may differ in a detail not shown here. Equal values may be shown once.

System: Streptococcus mutans
Assay: Tooth experiment: biofilm formation of Streptococcus mutans on pre-treated human incisors (Safranin staining, phase analysis of pictures)
Format: cell-based
Settings: for % Area covered with bacteria: single pictures (4 per tooth), 3 days S. mutans; for % Mean area covered: mean of 4 pictures
Description: To investigate the influence of glycerol phosphate, polyglycerol phosphate and LTA-T on the biofilm formation of Streptococcus mutans on human teeth, incisors (1/condition) were preincubated under rotating conditions (50 rpm) at 37° C. for 1 h with: • 1. 5000 μg/ml glycerol phosphate in PBS • 2. 20000 μg/ml glycerol phosphate in PBS • 3. 277 μg/ml polyglycerol phosphate (PGP1) in PBS • 4. 1106 μg/ml polyglycerol phosphate (PGP1) in PBS • 5. 25 μg/ml LTA-T in PBS • 6. PBS as control
These teeth were then washed with ultrapure H2O by repetitive dipping (3 liquid air interfaces) and incubated in a saturated suspension of Streptococcus mutans (in BHI broth, 3% sucrose) under rotating conditions (50 rpm) at 37° C. for 3 days. Each day, bacteria were fed with 1 ml of a solution of 30% sucrose in PBS to enhance biofilm formation. After incubation, the teeth were washed with ultrapure H2O, air dried for 2 h and stained with Safranin (0.5% v/v) solution. The stained teeth were air dried and photographed (see above).
Of each tooth 4 representative pictures were taken. The pictures were analyzed with SigmaPlot Software, Version 11.0 using phase analysis: The color (phase) of the bacterial biofilm was defined and % area of the chosen color on each picture was calculated.
The difference between groups was compared using the unpaired t-test.

O=P(O)(OC[C@H](O)COP(=O)(O)OC[C@H](O)COP(=O)(O)OC[C@H](O)CO)OC[C@@H](O)COP(=O)(O)OC[C@@H](O)CO [PGP1]
adhesion of bacteria compared to control tooth (pre-treatment 277 μg/ml): significantly reduced
% Area covered with bacteria (pre-treatment 277 μg/ml in PBS 1 h): 1.93% and 0.19% and 0.08% and 0.40%
% Mean area covered (pre-treatment 277 μg/ml): 0.65%
adhesion of bacteria to the tooth surface (pre-treatment 1106 μg/ml): bacteria were still able to adhere to the tooth surface
decrease of biofilm formation compared to control tooth (pre-treatment 1106 μg/ml): still significant
% Mean area covered (pre-treatment 1106 μg/ml): 15.16%

O=P(O)(O)OC(CO)CO [glycerol phosphate, beta glycerol phosphate]
adhesion of bacteria compared to control tooth (pre-treatment 5000 μg/ml): significantly reduced
% Area covered with bacteria (pre-treatment 5000 μg/ml in PBS 1 h): 0.00% and 0.02%
% Mean area covered (pre-treatment 5000 μg/ml): 0.00%
adhesion of bacteria compared to control tooth (pre-treatment 20000 μg/ml): significantly reduced
% Area covered with bacteria (pre-treatment 20000 μg/ml in PBS 1 h): 0.00%
% Mean area covered (pre-treatment 20000 μg/ml): 0.00%
